According to patent publication US10626126B2, “Compounds” (Pulmocide Limited, priority 2016, dated 2020):

Assays:
Assay type in all cases: cell-based
[1] = tested on: RSV B Washington strain; assay: RSV B induced CPE in HEp2 cells; details: human respiratory syncytial virus; for IC50: HEp-2, 144 h, 6 days; for inhibition at 0.1 µg/mL: HEp-2, at 0.1 μg/mL; for inhibition at 1 µg/mL: HEp-2, at 1 μg/mL
Experimental: (§1) HEp2 cells were seeded (10^3/well/50 μL) in 384-well plates (Catalogue number 353962, BD Falcon, Oxford, UK) in 5% FBS-DMEM (containing 2 mM L-glutamine and 1 mM sodium pyruvate) one day before infection. […] Simultaneously, test compounds (0.5 μL DMSO solution) were added to 100 μL of HEp2 cell culture with virus solution to provide a final DMSO solution of 0.5%. […] Sigma-Aldrich, Dorset, UK) was added to each well and the plate incubated for a further 6 hr (37° C./5% CO2). The fluorescence of each well [545 nm (excitation)/590 nm (emission)] was determined using a multi-scanner (Clariostar: BMG, Buckinghamshire, UK). The percentage inhibition for each well was calculated and the IC50, IC75 and IC90 values were calculated from the concentration-response curve generated for each test compound.

[2] = Cell viability: resazurin assay; details: human, HEp2 cells
Experimental: HEp2 cells were seeded in 384-well plates (10^3/well/50 μL; BD Falcon Ref 353962) in FBS DMEM (5%, containing 2 mM L-glutamine and 1 mM sodium pyruvate) one day before experimentation. Serum-free DMEM (50 μL) was added to test wells, while for control wells the media was removed and sterile water (100 μL) added. Test compounds (0.5 μL DMSO solution) were added to give a final DMSO concentration of 0.5%. HEp2 cells were incubated with each test compound for 5 days (37° C./5% CO2 in 2.5% FBS) and then resazurin stock solution (5 μL; 0.03%) was added to each well and the plate incubated for a further 6 hr (37° C./5% CO2). The fluorescence of each well at 545 nm (excitation) and 590 nm (emission) was determined using a multi-scanner (Clariostar: BMG Labtech). The percentage loss of cell viability was calculated for each well relative to vehicle (0.5% DMSO) treatment. Note that any apparent increase in cell viability associated with test compound treatment relative to vehicle is consequently tabulated as a negative percentage. Where appropriate, a CC50 value was calculated from the concentration-response curve generated from the concentration-response curve for each test compound.

[3] = tested on: RSV A2 strain; assay: RSV A2 induced CPE in HEp2 cells; details: human respiratory syncytial virus; for IC50: HEp-2, 120 h, 5 days; for inhibition at 0.01 µg/mL: HEp-2, at 0.01 μg/mL
Experimental: as §1

Row | Structure (SMILES) | IC50 [1] | IC50 [3] | inhibition at 0.1 µg/mL [1] | CC50 at 5 days [2] | inhibition at 0.01 µg/mL [3] | inhibition at 1 µg/mL [1]
1 | Cc1cnc(N2CC3(CCOCC3)C2)c(C(=O)Nc2ccc(C(=O)N3CCc4cc(C(=O)Nc5ccccc5F)sc4-c4sccc43)cc2)c1 [Example 9, N-(2-fluorophenyl)-4-(4-(5-methyl-2-(7-oxa-2-azaspiro[3.5]nonan-2-yl)nicotinamido)benzoyl)-5,6-dihydro-4H-dithieno[3,2-b:2′,3′-d]azepine-8-carboxamide] | 54 nM | 0.18 nM | 100% | > 14100 nM | 100% | 
2 | COc1cccc(F)c1NC(=O)c1cc2c(s1)-c1sccc1N(C(=O)c1ccc(NC(=O)c3cc(C)cnc3N3CC4(CCOCC4)C3)cc1)CC2 [Example 16, N-(2-fluoro-6-methoxyphenyl)-4-(4-(5-methyl-2-(7-oxa-2-azaspiro[3.5]nonan-2-yl)nicotinamido)benzoyl)-5,6-dihydro-4H-dithieno[3,2-b:2′,3′-d]azepine-8-carboxamide] | 32 nM | 0.18 nM | 100% | > 13600 nM | 96% | 
3 | O=C(Nc1c(F)cccc1F)c1cc2c(s1)-c1sccc1N(C(=O)c1ccc(NC(=O)c3cc4c(nc3N3CC5(CCOCC5)C3)CCOC4)cc1)CC2 [Example 25, N-(4-(8-((2,6-difluorophenyl)carbamoyl)-5,6-dihydro-4H-dithieno[3,2-b:2′,3′-d]azepine-4-carbonyl)phenyl)-2-(7-oxa-2-azaspiro[3.5]nonan-2-yl)-7,8-dihydro-5H-pyrano[4,3-b]pyridine-3-carboxamide] | 10 nM | 0.18 nM | 89% | > 13000 nM | 100% | 
4 | O=C(Nc1c(F)cccc1F)c1cc2c(s1)-c1sccc1N(C(=O)c1ccc(NC(=O)c3cc4ccccc4nc3N3CC4(CCOCC4)C3)cc1)CC2 [Example 27, 4-(4-(2-(7-oxa-2-azaspiro[3.5]nonan-2-yl)quinoline-3-carboxamido)benzoyl)-N-(2,6-difluorophenyl)-5,6-dihydro-4H-dithieno[3,2-b:2′,3′-d]azepine-8-carboxamide] | 32 nM | 0.63 nM |  | > 13100 nM | 94% | 93%
5 | Cc1cnc(N2CC3(CCOCC3)C2)c(C(=O)Nc2ccc(C(=O)N3CCc4cc(C(=O)Nc5ccc(F)cc5F)sc4-c4sccc43)cc2)c1 [Example 10, N-(2,4-difluorophenyl)-4-(4-(5-methyl-2-(7-oxa-2-azaspiro[3.5]nonan-2-yl)nicotinamido)benzoyl)-5,6-dihydro-4H-dithieno[3,2-b:2′,3′-d]azepine-8-carboxamide] | 123 nM | 0.75 nM |  | > 13800 nM | 97% | 100%
6 | O=C(Nc1c(F)cccc1F)c1cc2c(s1)-c1sccc1N(C(=O)c1ccc(NC(=O)c3cc4c(nc3N3CC5(CCOCC5)C3)CCC4)cc1)CC2 [Example 2, 4-(4-(2-(7-Oxa-2-azaspiro[3.5]nonan-2-yl)-6,7-dihydro-5H-cyclopenta[b]pyridine-3-carboxamido)benzoyl)-N-(2,6-difluorophenyl)-5,6-dihydro-4H-dithieno[3,2-b: 2′,3′-d]azepine-8-carboxamide] | 8.7 nM | 0.37 nM | 86% | > 13300 nM | 97% | 
7 | O=C(Nc1c(F)cccc1F)c1cc2c(s1)-c1sccc1N(C(=O)c1ccc(NC(=O)c3cccnc3N3CC4(COC4)C3)cc1)CC2 [Example 31, 4-(4-(2-(2-oxa-6-azaspiro[3.3]heptan-6-yl)nicotin-amido)benzoyl)-N-(2,6-difluorophenyl)-5,6-dihydro-4H-dithieno[3,2-b:2′,3′-d]azepine-8-carboxamide] | 1050 nM | 10.8 nM |  | > 14600 nM | 62% | 57%
8 | Cc1cnc(N2CC3(COC3)C2)c(C(=O)Nc2ccc(C(=O)N3CCc4cc(C(=O)Nc5c(F)cccc5F)sc4-c4sccc43)cc2)c1 [Example 32, N-(2,6-difluorophenyl)-4-(4-(5-methyl-2-(2-oxa-6-azaspiro[3.3]heptan-6-yl)nicotinamido)benzoyl)-5,6-dihydro-4H-dithieno[3,2-b:2′,3′-d]azepine-8-carboxamide] | 602 nM | 0.59 nM |  | > 14300 nM | 100% | 90%
9 | O=C(Nc1c(F)cccc1F)c1cc2c(s1)-c1sccc1N(C(=O)c1ccc(NC(=O)c3cccnc3N3CCC4(CC3)COC4)cc1)CC2 [Example 29, 4-(4-(2-(2-oxa-7-azaspiro[3.5]nonan-7-yl)nicotinamido)benzoyl)-N-(2,6-difluorophenyl)-5,6-dihydro-4H-dithieno [3,2-b:2′,3′-d]azepine-8-carboxamide] | 490 nM | 3.6 nM |  | > 14000 nM | 100% | 51%
10 | Cc1cnc(N2CCC3(CC2)COC3)c(C(=O)Nc2ccc(C(=O)N3CCc4cc(C(=O)Nc5c(F)cccc5F)sc4-c4sccc43)cc2)c1 [Example 30, N-(2,6-difluorophenyl)-4-(4-(5-methyl-2-(2-oxa-7-azaspiro[3.5]nonan-7-yl)nicotinamido)benzoyl)-5,6-dihydro-4H-dithieno[3,2-b:2′,3′-d]azepine-8-carboxamide] | 130 nM | 0.42 nM |  | > 13800 nM | 100% | 100%

Further lines, with some results ahead:

Row | IC50 [1] | IC50 [3] | Structure (SMILES) | inhibition at 0.1 µg/mL [1] | CC50 at 5 days [2] | inhibition at 0.01 µg/mL [3] | inhibition at 1 µg/mL [1]
11 | 19 nM | 0.55 nM | Cc1ccc(C(=O)Nc2ccc(C(=O)N3CCc4cc(C(=O)Nc5c(F)cccc5F)sc4-c4sccc43)c(F)c2)c(N2CC3(CCOCC3)C2)n1 [Example 5, N-(2,6-Difluorophenyl)-4-(2-fluoro-4-(6-methyl-2-(7-oxa-2-azaspiro[3.5]nonan-2-yl)nicotinamido)benzoyl)-5,6-dihydro-4H-dithieno[3,2-b:2′,3′-d]azepine-8-carboxamide] | 97% | > 13400 nM | 89% | 
12 | 1.2 nM | 0.14 nM | Cc1cnc(N2CC3(CCOCC3)C2)c(C(=O)Nc2ccc(C(=O)N3CCc4cc(C(=O)Nc5c(Cl)cccc5Cl)sc4-c4sccc43)cc2)c1 [Example 13, N-(2,6-dichlorophenyl)-4-(4-(5-methyl-2-(7-oxa-2-azaspiro [3.5]nonan-2-yl)nicotinamido)benzoyl)-5,6-dihydro-4H-dithieno[3,2-b:2′,3′-d]azepine-8-carboxamide] |  | > 13200 nM | 77% | 80%
13 | 29 nM | 0.18 nM | Cc1cnc(N2CC3(CCOCC3)C2)c(C(=O)Nc2ccc(C(=O)N3CCc4cc(C(=O)Nc5c(F)cccc5Cl)sc4-c4sccc43)c(F)c2)c1 [Example 19, N-(2-chloro-6-fluorophenyl)-4-(2-fluoro-4-(5-methyl-2-(7-oxa-2-azaspiro[3.5]nonan-2-yl)nicotinamido)benzoyl)-5,6-dihydro-4H-dithieno[3,2-b:2′,3′-d]azepine-8-carboxamide] |  | > 13200 nM | 93% | 86%
14 | 19 nM | 0.17 nM | Cc1cnc(N2CC3(CCOCC3)C2)c(C(=O)Nc2ccc(C(=O)N3CCc4cc(C(=O)Nc5c(F)cc(F)cc5F)sc4-c4sccc43)cc2)c1 [Example 17, 4-(4-(5-methyl-2-(7-oxa-2-azaspiro[3.5]nonan-2-yl)nicotinamido)benzoyl)-N-(2,4,6-trifluorophenyl)-5,6-dihydro-4H-dithieno[3,2-b:2′,3′-d]azepine-8-carboxamide] | 100% | > 13400 nM | 92% | 
15 | 14 nM | 0.17 nM | Cc1cnc(N2CC3(CCOCC3)C2)c(C(=O)Nc2ccc(C(=O)N3CCc4cc(C(=O)Nc5c(F)cccc5F)sc4-c4sccc43)c(F)c2)c1 [Example 18, N-(2,6-difluorophenyl)-4-(2-fluoro-4-(5-methyl-2-(7-oxa-2-azaspiro[3.5]nonan-2-yl)nicotinamido)benzoyl)-5,6 dihydro-4H-dithieno[3,2-b:2′,3′-d]azepine-8-carboxamide] | 92% | > 13400 nM | 100% | 
